#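 Here, GI50 denotes the concentration required for 50% inhibition of growth. At the TGI there is no net growth.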
# What was measured:
# Assay in all cases: inhibition of tumour cell growth, NCI panel, 384-well format
# 786-0 renal = tested on: 786-0 renal
# A549 NSCLC = tested on: A549 NSCLC
# ACHN renal = tested on: ACHN renal
# BT-549 breast = tested on: BT-549 breast
# CAKI-1 renal = tested on: CAKI-1 renal
# CCRF-CEM leukemia = tested on: CCRF-CEM leukemia
# COLO 205 colon = tested on: COLO 205 colon
# DU-145 prostate = tested on: DU-145 prostate
# EKVX NSCLC = tested on: EKVX NSCLC
# HCC-2998 colon = tested on: HCC-2998 colon
# HCT-15 colon = tested on: HCT-15 colon
# HL-60(TB) leukemia = tested on: HL-60(TB) leukemia
# HOP-62 NSCLC = tested on: HOP-62 NSCLC
# HOP-92 NSCLC = tested on: HOP-92 NSCLC
# HS 578T breast = tested on: HS 578T breast
# HT29 colon = tested on: HT29 colon
# IGROV1 ovarian = tested on: IGROV1 ovarian
# KM12 colon = tested on: KM12 colon
# M14 melanoma = tested on: M14 melanoma
# MALME-3M melanoma = tested on: MALME-3M melanoma
# MCF7 breast = tested on: MCF7 breast
# MDA-MB-231 breast = tested on: MDA-MB-231 breast
# MDA-MB-435 melanoma = tested on: MDA-MB-435 melanoma
# MDA-MB-468 breast = tested on: MDA-MB-468 breast
# MOLT-4 leukemia = tested on: MOLT-4 leukemia
# NCI-H226 lung = tested on: NCI-H226 lung
# NCI-H23 lung = tested on: NCI-H23 lung
# NCI-H322M lung = tested on: NCI-H322M lung
# NCI-H460 NSCLC = tested on: NCI-H460 NSCLC
# NCI-H522 lung = tested on: NCI-H522 lung
# NCI/ADR-RES ovarian = tested on: NCI/ADR-RES ovarian
# OVCAR-3 ovarian = tested on: OVCAR-3 ovarian
# OVCAR-4 ovarian = tested on: OVCAR-4 ovarian
# OVCAR-5 ovarian = tested on: OVCAR-5 ovarian
# OVCAR-8 ovarian = tested on: OVCAR-8 ovarian
# PC-3 prostate = tested on: PC-3 prostate
# RPMI-8226 leukemia = tested on: RPMI-8226 leukemia
# RXF 393 renal = tested on: RXF 393 renal
# SF-268 CNS = tested on: SF-268 CNS
# SF-295 CNS = tested on: SF-295 CNS
# SF-539 CNS = tested on: SF-539 CNS
# SK-MEL-2 melanoma = tested on: SK-MEL-2 melanoma
# SK-MEL-28 melanoma = tested on: SK-MEL-28 melanoma
# SK-MEL-5 melanoma = tested on: SK-MEL-5 melanoma
# SK-OV-3 ovarian = tested on: SK-OV-3 ovarian
# SN12C renal = tested on: SN12C renal
# SNB-19 CNS = tested on: SNB-19 CNS
# SNB-75 CNS = tested on: SNB-75 CNS
# SR leukemia = tested on: SR leukemia
# SW-620 colon = tested on: SW-620 colon
# T-47D breast = tested on: T-47D breast
# TK-10 renal = tested on: TK-10 renal
# U251 glioblastoma = tested on: U251 glioblastoma
# UACC-257 melanoma = tested on: UACC-257 melanoma
# UACC-62 melanoma = tested on: UACC-62 melanoma
smiles,measurement,setting,value
Nc1ncn([C@@H]2S[C@H](CO)[C@@H](O)[C@@H]2F)c(=O)n1,GI50,786-0 renal,254 nM
same,TGI,786-0 renal,1540 nM
same,GI50,A549 NSCLC,409 nM
same,TGI,A549 NSCLC,> 100000 nM
same,GI50,ACHN renal,224 nM
same,TGI,ACHN renal,490 nM
same,GI50,BT-549 breast,1340 nM
same,TGI,BT-549 breast,8750 nM
same,GI50,CAKI-1 renal,625 nM
same,TGI,CAKI-1 renal,> 100000 nM
same,GI50,CCRF-CEM leukemia,26.6 nM
same,TGI,CCRF-CEM leukemia,96.1 nM
same,GI50,COLO 205 colon,268 nM
same,TGI,COLO 205 colon,788 nM
same,GI50,DU-145 prostate,389 nM
same,TGI,DU-145 prostate,3950 nM
same,GI50,EKVX NSCLC,6470 nM
same,TGI,EKVX NSCLC,> 100000 nM
same,GI50,HCC-2998 colon,267 nM
same,TGI,HCC-2998 colon,14100 nM
same,GI50,HCT-15 colon,1850 nM
same,TGI,HCT-15 colon,> 100000 nM
same,GI50,HL-60(TB) leukemia,241 nM
same,TGI,HL-60(TB) leukemia,495 nM
same,GI50,HOP-62 NSCLC,423 nM
same,TGI,HOP-62 NSCLC,2590 nM
same,GI50,HOP-92 NSCLC,314 nM
same,TGI,HOP-92 NSCLC,> 100000 nM
same,GI50,HS 578T breast,984 nM
same,TGI,HS 578T breast,> 100000 nM
same,GI50,HT29 colon,2380 nM
same,TGI,HT29 colon,> 100000 nM
same,GI50,IGROV1 ovarian,2030 nM
same,TGI,IGROV1 ovarian,> 100000 nM
same,GI50,KM12 colon,1410 nM
same,TGI,KM12 colon,> 100000 nM
same,GI50,M14 melanoma,290 nM
same,TGI,M14 melanoma,833 nM
same,GI50,MALME-3M melanoma,366 nM
same,TGI,MALME-3M melanoma,2660 nM
same,GI50,MCF7 breast,663 nM
same,TGI,MCF7 breast,> 100000 nM
same,GI50,MDA-MB-231 breast,1140 nM
same,TGI,MDA-MB-231 breast,81100 nM
same,GI50,MDA-MB-435 melanoma,1730 nM
same,TGI,MDA-MB-435 melanoma,> 100000 nM
same,GI50,MDA-MB-468 breast,2370 nM
same,TGI,MDA-MB-468 breast,8070 nM
same,GI50,MOLT-4 leukemia,28.7 nM
same,TGI,MOLT-4 leukemia,110 nM
same,GI50,NCI-H226 lung,1010 nM
same,TGI,NCI-H226 lung,3800 nM
same,GI50,NCI-H23 lung,269 nM
same,TGI,NCI-H23 lung,805 nM
same,GI50,NCI-H322M lung,2910 nM
same,TGI,NCI-H322M lung,> 100000 nM
same,GI50,NCI-H460 NSCLC,238 nM
same,TGI,NCI-H460 NSCLC,724 nM
same,GI50,NCI-H522 lung,628 nM
same,TGI,NCI-H522 lung,> 100000 nM
same,GI50,NCI/ADR-RES ovarian,291 nM
same,TGI,NCI/ADR-RES ovarian,1380 nM
same,GI50,OVCAR-3 ovarian,853 nM
same,TGI,OVCAR-3 ovarian,> 100000 nM
same,GI50,OVCAR-4 ovarian,> 100000 nM
same,TGI,OVCAR-4 ovarian,> 100000 nM
same,GI50,OVCAR-5 ovarian,691 nM
same,TGI,OVCAR-5 ovarian,7730 nM
same,GI50,OVCAR-8 ovarian,255 nM
same,TGI,OVCAR-8 ovarian,1830 nM
same,GI50,PC-3 prostate,1430 nM
same,TGI,PC-3 prostate,> 100000 nM
same,GI50,RPMI-8226 leukemia,2160 nM
same,TGI,RPMI-8226 leukemia,4420 nM
same,GI50,RXF 393 renal,2770 nM
same,TGI,RXF 393 renal,44800 nM
same,GI50,SF-268 CNS,1050 nM
same,TGI,SF-268 CNS,4990 nM
same,GI50,SF-295 CNS,2440 nM
same,TGI,SF-295 CNS,17800 nM
same,GI50,SF-539 CNS,3750 nM
same,TGI,SF-539 CNS,18600 nM
same,GI50,SK-MEL-2 melanoma,392 nM
same,TGI,SK-MEL-2 melanoma,692 nM
same,GI50,SK-MEL-28 melanoma,507 nM
same,TGI,SK-MEL-28 melanoma,4920 nM
same,GI50,SK-MEL-5 melanoma,435 nM
same,TGI,SK-MEL-5 melanoma,2760 nM
same,GI50,SK-OV-3 ovarian,299 nM
same,TGI,SK-OV-3 ovarian,2200 nM
same,GI50,SN12C renal,604 nM
same,TGI,SN12C renal,2910 nM
same,GI50,SNB-19 CNS,461 nM
same,TGI,SNB-19 CNS,7050 nM
same,GI50,SNB-75 CNS,15600 nM
same,TGI,SNB-75 CNS,> 100000 nM
same,GI50,SR leukemia,414 nM
same,TGI,SR leukemia,1400 nM
same,GI50,SW-620 colon,887 nM
same,TGI,SW-620 colon,> 100000 nM
same,GI50,T-47D breast,10400 nM
same,TGI,T-47D breast,> 100000 nM
same,GI50,TK-10 renal,988 nM
same,TGI,TK-10 renal,> 100000 nM
same,GI50,U251 glioblastoma,2410 nM
same,TGI,U251 glioblastoma,23600 nM
same,GI50,UACC-257 melanoma,58700 nM
same,TGI,UACC-257 melanoma,> 100000 nM
same,GI50,UACC-62 melanoma,3640 nM
same,TGI,UACC-62 melanoma,19700 nM

# Source: PubChem BioAssay (NCI)
